Data from ChEMBL document CHEMBL1128595, “Synthesis and biological activity of 7-alkylidenecephems” (J Med Chem, 1995).

Biological target: Beta-lactamase (Enterobacter cloacae) (UniProt P05364)
Test: The beta-lactamase inactivation partition ratio of the compound

Compound CC(=O)OCC1=C(C(=O)[O-])N2C(=O)/C(=C/c3ccccn3)[C@H]2S(=O)(=O)C1.[Na+] has a Partition ratio of 20.
In the case of CC(=O)OCC1=C(C(=O)[O-])N2C(=O)C(=C=CC(C)(C)C)[C@H]2S(=O)(=O)C1.[Na+], the Partition ratio is reported as 12.
